Marks after values point to notes of the source that are not given here. Square brackets hold non-standard residues; d marks the D form. Ends that are not written are not given here. Hyp = O=C(O)[C@@H]1C[C@@H](O)CN1
What was measured:
Format in all cases: cell-based, human
[1] = system: endoserine-1 (ET-1); assay: ET-1 expression suppression test (real time PCR); settings: 0.5 mM, 24 hours, NHEK (NB), control 1.00, GAPDH corrected
Protocol: (§1) A normal human epidermal keratinocyte NHEK (NB) (available from KURABO INDUSTRIES LTD.) was used. The cells were precultured in HuMedia-KG2 (available from KURABO INDUSTRIES LTD.), and 1.5×10^4 cells/mL×5 mL (7.5×10^4 cells/dish) were cultured in a 60 mm laboratory dish for two days. After confirming that the cells were subconfluent, the medium was replaced by 5 mL of HuMedia-KB2 (available from KURABO INDUSTRIES LTD.). Samples were added in respective concentrations, and allowed to react for 24 hours (ET-1, K10), 48 hours (TGM1, ivl, HAS2), and 72 hours (FLG). Total RNA was extracted from the cells, reverse transcribed, and subjected to real time PCR. In the real time PCR, as target genes, endoserine-1 (ET-1; Hs00174961_m1), keratin 10 (K10; Hs01043114_g1), transglutaminase 1 (TGM1; Hs01070310_m1), involucrin (ivl; Hs00846307_s1), filaggrin (FLG; Hs00856927_g1) and hyaluronic acid synthase 2 (HAS2; Hs00193435_m1) were measured. GAPDH was used as a correction gene. Calculation was conducted by using a calibration curve method, and FAM pigment of TaqMan Gene Expression was used in primers and probes.
(§2) For each peptide or the like of Examples 1 to 13 and Comparative Examples 1 to 27, RNA expression amounts of endoserine-1 (ET-1), keratin 10 (K10), transglutaminase 1 (TGM1), involucrin (ivl), filaggrin (FLG) and hyaluronic acid synthase 2 (HAS2) were measured. Values in the tables are each average value±standard deviation, and *, ** and *** denote that they are significant with P<0.05, P<0.01, and P<0.001, respectively with respect to the control in Paired-t-test.

[2] = system: keratin 10 (K10); assay: K10 expression promotion test (real time PCR); settings: 0.5 mM, 24 hours, NHEK (NB), control 1.00, GAPDH corrected
Protocol: as §1, §2

[3] = system: transglutaminase 1 (TGM1); assay: TGM1 expression promotion test (real time PCR); settings: 0.5 mM, 48 hours, NHEK (NB), control 1.00, GAPDH corrected
Protocol: as §1, §2

[4] = system: involucrin (ivl); assay: ivl expression promotion test (real time PCR); settings: 0.5 mM, 48 hours, NHEK (NB), control 1.00, GAPDH corrected
Protocol: as §1, §2

[5] = system: filaggrin (FLG); assay: FLG expression promotion test (real time PCR); settings: 0.5 mM, 72 hours, NHEK (NB), control 1.00, GAPDH corrected
Protocol: as §1, §2

[6] = system: hyaluronic acid synthase 2 (HAS2); assay: HAS2 expression promotion test (real time PCR); settings: 0.5 mM, 48 hours, NHEK (NB), control 1.00, GAPDH corrected
Protocol: as §1, §2

Gly-Pro [Example 3]
Endoserine-I RNA expression amount [1]: 0.36 ± 0.12** | Keratin 10 RNA expression amount [2]: 2.56 ± 0.22*** | Transglutaminase 1 RNA expression amount [3]: 2.15 ± 0.02** | Involucrin RNA expression amount [4]: 2.18 ± 0.00*** | Filaggrin RNA expression amount [5]: 7.21 ± 0.95*** | Hyaluronic acid synthase 2 RNA expression amount [6]: 3.08 ± 0.99**

O=C(O)[C@@H]1C[C@@H](O)CN1 [Comparative Example 8, L-hydroxyproline]
Endoserine-I RNA expression amount [1]: 1.52 ± 0.02*** | Keratin 10 RNA expression amount [2]: 0.64 ± 0.02** | Transglutaminase 1 RNA expression amount [3]: 0.94 ± 0.10 | Involucrin RNA expression amount [4]: 0.94 ± 0.04 | Filaggrin RNA expression amount [5]: 0.89 ± 0.09 | Hyaluronic acid synthase 2 RNA expression amount [6]: 0.70 ± 0.29

Pro-Gly [Comparative Example 4]
Endoserine-I RNA expression amount [1]: 1.06 ± 0.10** | Keratin 10 RNA expression amount [2]: 0.89 ± 0.01* | Transglutaminase 1 RNA expression amount [3]: 0.64 ± 0.01*** | Involucrin RNA expression amount [4]: 0.72 ± 0.02* | Filaggrin RNA expression amount [5]: 0.86 ± 0.18 | Hyaluronic acid synthase 2 RNA expression amount [6]: 0.54 ± 0.98*

Phe-Hyp [Example 11]
Endoserine-I RNA expression amount [1]: 0.97 ± 0.16 | Keratin 10 RNA expression amount [2]: 2.22 ± 0.01*** | Transglutaminase 1 RNA expression amount [3]: 1.46 ± 0.02* | Involucrin RNA expression amount [4]: 1.85 ± 0.00*** | Filaggrin RNA expression amount [5]: 1.95 ± 0.19* | Hyaluronic acid synthase 2 RNA expression amount [6]: 1.63 ± 0.49*

Gly-Pro-[Hyp] [Comparative Example 1]
Endoserine-I RNA expression amount [1]: 1.05 ± 0.11 | Keratin 10 RNA expression amount [2]: 0.94 ± 0.10 | Transglutaminase 1 RNA expression amount [3]: 0.98 ± 0.05 | Involucrin RNA expression amount [4]: 0.95 ± 0.08 | Filaggrin RNA expression amount [5]: 1.08 ± 0.21 | Hyaluronic acid synthase 2 RNA expression amount [6]: 0.98 ± 0.45

Pro-Ala-Gly [Example 4]
Endoserine-I RNA expression amount [1]: 0.67 ± 0.01** | Keratin 10 RNA expression amount [2]: 3.98 ± 0.23*** | Transglutaminase 1 RNA expression amount [3]: 3.11 ± 0.02*** | Involucrin RNA expression amount [4]: 2.75 ± 0.03*** | Filaggrin RNA expression amount [5]: 5.33 ± 1.25*** | Hyaluronic acid synthase 2 RNA expression amount [6]: 2.99 ± 1.03**

N[C@@H](Cc1ccccc1)C(=O)O [Comparative Example 14, L-phenylalanine]
Endoserine-I RNA expression amount [1]: 1.05 ± 0.05 | Keratin 10 RNA expression amount [2]: 0.78 ± 0.07 | Transglutaminase 1 RNA expression amount [3]: 0.72 ± 0.05** | Involucrin RNA expression amount [4]: 0.87 ± 0.04 | Filaggrin RNA expression amount [5]: 0.59 ± 0.05** | Hyaluronic acid synthase 2 RNA expression amount [6]: 0.89 ± 0.84

Ala-[Hyp]-Gly [Example 7]
Endoserine-I RNA expression amount [1]: 0.52 ± 0.01 | Keratin 10 RNA expression amount [2]: 5.06 ± 0.37*** | Transglutaminase 1 RNA expression amount [3]: 2.00 ± 0.02*** | Involucrin RNA expression amount [4]: 1.36 ± 0.07* | Filaggrin RNA expression amount [5]: 3.09 ± 0.23** | Hyaluronic acid synthase 2 RNA expression amount [6]: 2.21 ± 0.67**

CC(C)C[C@H](N)C(=O)O [Comparative Example 10, L-leucine]
Endoserine-I RNA expression amount [1]: 1.58 ± 0.05** | Keratin 10 RNA expression amount [2]: 0.62 ± 0.01** | Transglutaminase 1 RNA expression amount [3]: 0.63 ± 0.07* | Involucrin RNA expression amount [4]: 0.84 ± 0.03 | Filaggrin RNA expression amount [5]: 0.89 ± 0.08 | Hyaluronic acid synthase 2 RNA expression amount [6]: 0.76 ± 0.07*

Ala-Hyp [Comparative Example 2]
Endoserine-I RNA expression amount [1]: 1.23 ± 0.03* | Keratin 10 RNA expression amount [2]: 1.00 ± 0.06 | Transglutaminase 1 RNA expression amount [3]: 0.48 ± 0.02*** | Involucrin RNA expression amount [4]: 1.01 ± 0.00 | Filaggrin RNA expression amount [5]: 0.98 ± 0.95 | Hyaluronic acid synthase 2 RNA expression amount [6]: 0.99 ± 0.66

Leu-Hyp [Comparative Example 3]
Endoserine-I RNA expression amount [1]: 1.08 ± 0.00 | Keratin 10 RNA expression amount [2]: 1.04 ± 0.06 | Transglutaminase 1 RNA expression amount [3]: 0.58 ± 0.01*** | Involucrin RNA expression amount [4]: 0.89 ± 0.09* | Filaggrin RNA expression amount [5]: 0.69 ± 0.58 | Hyaluronic acid synthase 2 RNA expression amount [6]: 0.87 ± 0.63

Glu-Hyp [Example 6]
Endoserine-I RNA expression amount [1]: 0.65 ± 0.02 | Keratin 10 RNA expression amount [2]: 3.48 ± 0.05*** | Transglutaminase 1 RNA expression amount [3]: 2.12 ± 0.01*** | Involucrin RNA expression amount [4]: 1.95 ± 0.08** | Filaggrin RNA expression amount [5]: 3.26 ± 1.61** | Hyaluronic acid synthase 2 RNA expression amount [6]: 2.35 ± 0.85**

N[C@@H](CCC(=O)O)C(=O)O [Comparative Example 11, L-glutamic acid]
Endoserine-I RNA expression amount [1]: 1.00 ± 0.02** | Keratin 10 RNA expression amount [2]: 0.65 ± 0.01** | Transglutaminase 1 RNA expression amount [3]: 0.40 ± 0.01** | Involucrin RNA expression amount [4]: 0.85 ± 0.11 | Filaggrin RNA expression amount [5]: 0.77 ± 0.04* | Hyaluronic acid synthase 2 RNA expression amount [6]: 1.06 ± 0.24

(Pro-Hyp-Gly)2 [Example 2]
Endoserine-I RNA expression amount [1]: 0.43 ± 0.03*** | Keratin 10 RNA expression amount [2]: 5.69 ± 0.28*** | Transglutaminase 1 RNA expression amount [3]: 7.21 ± 0.03** | Involucrin RNA expression amount [4]: 4.35 ± 0.04*** | Filaggrin RNA expression amount [5]: 9.58 ± 1.02*** | Hyaluronic acid synthase 2 RNA expression amount [6]: 3.11 ± 0.89**

Pro-Pro [Comparative Example 5]
Endoserine-I RNA expression amount [1]: 1.65 ± 0.07* | Keratin 10 RNA expression amount [2]: 0.98 ± 0.16 | Transglutaminase 1 RNA expression amount [3]: 0.64 ± 0.01*** | Involucrin RNA expression amount [4]: 0.56 ± 0.04* | Filaggrin RNA expression amount [5]: 0.66 ± 0.09** | Hyaluronic acid synthase 2 RNA expression amount [6]: 0.78 ± 0.64*

Pro-Ala [Comparative Example 6]
Endoserine-I RNA expression amount [1]: 1.09 ± 0.01** | Keratin 10 RNA expression amount [2]: 0.70 ± 0.04 | Transglutaminase 1 RNA expression amount [3]: 0.94 ± 0.13 | Involucrin RNA expression amount [4]: 0.81 ± 0.06** | Filaggrin RNA expression amount [5]: 0.63 ± 0.08** | Hyaluronic acid synthase 2 RNA expression amount [6]: 0.99 ± 0.68

C[C@H](N)C(=O)O [Comparative Example 12, L-alanine]
Endoserine-I RNA expression amount [1]: 1.58 ± 0.05** | Keratin 10 RNA expression amount [2]: 0.82 ± 0.02* | Transglutaminase 1 RNA expression amount [3]: 0.95 ± 0.04 | Involucrin RNA expression amount [4]: 0.64 ± 0.15** | Filaggrin RNA expression amount [5]: 0.69 ± 0.02** | Hyaluronic acid synthase 2 RNA expression amount [6]: 0.89 ± 0.57

NCC(=O)O [Comparative Example 9, L-glycine]
Endoserine-I RNA expression amount [1]: 1.01 ± 0.05** | Keratin 10 RNA expression amount [2]: 0.81 ± 0.05 | Transglutaminase 1 RNA expression amount [3]: 0.75 ± 0.01** | Involucrin RNA expression amount [4]: 0.71 ± 0.03** | Filaggrin RNA expression amount [5]: 0.87 ± 0.05 | Hyaluronic acid synthase 2 RNA expression amount [6]: 0.61 ± 0.40**

Hyp-Gly [Example 9]
Endoserine-I RNA expression amount [1]: 0.55 ± 0.09** | Keratin 10 RNA expression amount [2]: 1.99 ± 0.13* | Transglutaminase 1 RNA expression amount [3]: 1.99 ± 0.06* | Involucrin RNA expression amount [4]: 2.04 ± 0.02* | Filaggrin RNA expression amount [5]: 2.98 ± 0.58** | Hyaluronic acid synthase 2 RNA expression amount [6]: 2.18 ± 0.67**

O=C(O)[C@@H]1CCCN1 [Comparative Example 7, L-proline]
Endoserine-I RNA expression amount [1]: 1.89 ± 0.06** | Keratin 10 RNA expression amount [2]: 0.73 ± 0.03** | Transglutaminase 1 RNA expression amount [3]: 1.02 ± 0.13 | Involucrin RNA expression amount [4]: 0.78 ± 0.01** | Filaggrin RNA expression amount [5]: 0.85 ± 0.18 | Hyaluronic acid synthase 2 RNA expression amount [6]: 0.84 ± 0.47

Glu-[Hyp]-Gly [Example 8]
Endoserine-I RNA expression amount [1]: 0.71 ± 0.03 | Keratin 10 RNA expression amount [2]: 2.39 ± 0.02* | Transglutaminase 1 RNA expression amount [3]: 1.69 ± 0.01*** | Involucrin RNA expression amount [4]: 1.89 ± 0.03* | Filaggrin RNA expression amount [5]: 2.92 ± 0.89** | Hyaluronic acid synthase 2 RNA expression amount [6]: 2.56 ± 0.45**

Pro-[Hyp]-Gly [Example 5]
Endoserine-I RNA expression amount [1]: 0.53 ± 0.00 | Keratin 10 RNA expression amount [2]: 3.81 ± 0.17*** | Transglutaminase 1 RNA expression amount [3]: 5.36 ± 0.01*** | Involucrin RNA expression amount [4]: 1.75 ± 0.22* | Filaggrin RNA expression amount [5]: 5.32 ± 0.69*** | Hyaluronic acid synthase 2 RNA expression amount [6]: 2.45 ± 0.90**

Ser-[Hyp]-Gly [Example 10]
Endoserine-I RNA expression amount [1]: 0.89 ± 0.07* | Keratin 10 RNA expression amount [2]: 1.77 ± 0.04** | Transglutaminase 1 RNA expression amount [3]: 1.21 ± 0.01 | Involucrin RNA expression amount [4]: 1.59 ± 0.05* | Filaggrin RNA expression amount [5]: 2.29 ± 0.26** | Hyaluronic acid synthase 2 RNA expression amount [6]: 2.14 ± 0.89*

N[C@@H](CO)C(=O)O [Comparative Example 13, L-serine]
Endoserine-I RNA expression amount [1]: 1.64 ± 0.07** | Keratin 10 RNA expression amount [2]: 0.69 ± 0.03** | Transglutaminase 1 RNA expression amount [3]: 0.85 ± 0.02 | Involucrin RNA expression amount [4]: 0.98 ± 0.05 | Filaggrin RNA expression amount [5]: 0.85 ± 0.08 | Hyaluronic acid synthase 2 RNA expression amount [6]: 0.81 ± 0.50
